Literature values as cited in article PMC6370995, “Phase I study of PF‐04895162, a Kv7 channel opener, reveals unexpected hepatotoxicity in healthy subjects, but not rats or monkeys: clinical evidence of disrupted bile acid homeostasis” (Pharmacology Research & Perspectives, 2019).

What was measured:
patients = tested on: patients; parameters: method as in PMID 27178047; settings: 50 mg once daily, Phase 3 clinical study; cited from earlier work
BSEP = tested on: BSEP; parameters: method as in PMID 11309550; settings: cited from earlier work

| Compound | clinical liver finding (patients) | BSEP inhibition potency (BSEP) |
| --- | --- | --- |
| Cc1cc(OCCCS(C)(=O)=O)cc(C)c1-c1cccc(COc2ccc3c(c2)OC[C@H]3CC(=O)O)c1 [TAK‐875] | clinical hepatotoxicity in a small number of patients |  |
| COc1ccccc1Oc1c(NS(=O)(=O)c2ccc(C(C)(C)C)cc2)nc(-c2ncccn2)nc1OCCO [bosentan] |  | ~ 12 μmol/L |
